Measurements published in patent publication US20190160049A1, “2-OXO-1,2-DIHYDROPYRIDINE-3-CARBOXAMIDE COMPOUNDS AND THEIR USE AS DUAL INHIBITORS OF PDK1/AURA” (INTERNATIONAL SOCIETY FOR DRUG DEVELOPMENT S.R.L., priority 2016, published 2019).
Values belong to the compound of their own block, whether it stands above or below them.

How the values were obtained:
[1] = target: T1, AurA (Homo sapiens, UniProt O14965); assay: FRET-based Z'-LYTE kinase assay against AurA; format: biochemical; details: for inhibition at 10 µM: 10μM compound; for inhibition at 10 µM / IC50: Z'-LYTE assay
T1 construct: purchased Invitrogen Corporation, Life Technologies
T1 sequence (O14965 1-403): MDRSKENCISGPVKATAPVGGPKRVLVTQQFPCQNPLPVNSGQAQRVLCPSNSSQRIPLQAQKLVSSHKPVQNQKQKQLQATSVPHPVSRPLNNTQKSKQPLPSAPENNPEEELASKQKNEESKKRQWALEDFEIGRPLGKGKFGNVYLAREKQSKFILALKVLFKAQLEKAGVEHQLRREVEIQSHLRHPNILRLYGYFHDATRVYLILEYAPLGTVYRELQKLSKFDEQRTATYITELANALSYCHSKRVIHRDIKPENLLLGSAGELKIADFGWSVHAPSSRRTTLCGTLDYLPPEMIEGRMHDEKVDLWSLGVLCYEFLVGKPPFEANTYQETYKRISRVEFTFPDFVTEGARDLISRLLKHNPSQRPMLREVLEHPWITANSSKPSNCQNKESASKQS
Description: (§1) The compounds of Formula (I) were tested in the biological test named Kinase-specific Z′-LYTE® assay (Invitrogen Corporation, Life Technologies).

[2] = target: T2, PDK1 (Homo sapiens, UniProt O15530); assay: FRET-based Z'-LYTE kinase assay against PDK1; format: biochemical
T2 construct: purchased Invitrogen Corporation, Life Technologies
T2 sequence (O15530 1-556): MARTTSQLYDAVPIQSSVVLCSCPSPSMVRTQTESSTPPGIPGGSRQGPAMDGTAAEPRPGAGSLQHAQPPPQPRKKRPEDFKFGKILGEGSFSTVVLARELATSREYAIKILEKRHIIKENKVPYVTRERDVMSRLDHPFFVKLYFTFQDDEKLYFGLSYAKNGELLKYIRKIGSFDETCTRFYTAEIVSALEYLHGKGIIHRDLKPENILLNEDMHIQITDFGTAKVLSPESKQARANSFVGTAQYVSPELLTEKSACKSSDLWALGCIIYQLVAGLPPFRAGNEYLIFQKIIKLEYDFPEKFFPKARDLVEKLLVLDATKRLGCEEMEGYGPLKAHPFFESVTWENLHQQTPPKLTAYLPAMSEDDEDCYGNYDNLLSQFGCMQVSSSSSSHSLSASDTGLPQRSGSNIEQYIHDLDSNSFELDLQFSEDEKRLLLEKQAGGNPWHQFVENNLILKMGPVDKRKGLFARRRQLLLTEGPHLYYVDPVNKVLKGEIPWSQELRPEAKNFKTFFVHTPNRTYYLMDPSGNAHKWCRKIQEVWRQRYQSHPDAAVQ
Description: as §1

[3] = tested on: CSC neurospheres; assay: Sphere-derived cell morphology (neurosphere area, outgrowth of cellular processes); format: cell-based; details: seven days; SA16 10 nM, 1 μM, 10 μM; 2.5 PIM MP7, 1.5 μM Alisertib
Description: FIG. 5 illustrates the effects of SA16 on sphere-derived cell morphology of Example 3c. CSCs were treated for seven days with complete NSC medium containing DMSO (control), or SA16 (10 nM, 1 μM, 10 μM) (A) Representative cell micrographs of control and SA16 (10 μM) after seven days of treatment are shown. The area of the culture plates occupied by the spheres (B) and the length of cellular processes (C) were scored after seven days of treatment. The counts represent the mean values±SEM of two independent experiments. The significance of differences was determined with a one-way ANOVA with Bonferroni post-test: * p<0.05, ** p<0.01, *** p<0.001 vs. control cells.
FIG. 7 illustrates the effects of MP7, Alisertib and of their combined treatment on sphere-derived cell morphology of example 3c. CSCs were treated for seven days with complete NSC medium containing DMSO (control), MP7 and/or alisertib (A) Representative cell micrographs after seven days of treatment are shown. The area of the culture plates occupied by the spheres (B) and the length of cellular processes (C) were scored after seven days of treatment. The counts represent the mean values±SEM of two independent experiments. The significance of differences was determined with a one-way ANOVA with Bonferroni post-test: * p<0.05, *** p<0.001 vs. control cells; ## p<0.01 vs. cells treated with MP7 alone; § p<0.05 vs. cells treated with Alisertib alone.
The effects of SA16 on morphology of neurospheres were evaluated by quantifying the area occupied by the cells in culture plates, as well as the outgrowth of cellular processes.
The inventors then evaluated the effects of MP7, Alisertib and of their combination on CSC differentiation. The cells were incubated with […] MP7, alone or in combination with 1.5 μM Alisertib for seven days.

[4] = tested on: U87MG cells; assay: U87MG cell proliferation, MTS assay; format: cell-based; details: 72 h
Description: FIG. 1 illustrates the effects of SA16 on U87MG cell proliferation of example 3 (a). U87MG cells were treated in complete medium with different concentrations of SA16 (1 nM-100 μM) for 72 h. At the end of treatment, cell proliferation was measured using the MTS assay. The data are expressed as a percentage with respect to that of untreated cells (control), which was set to 100%, and are the mean values±SEM of three independent experiments, each performed in duplicate. The significance of the differences was determined with a one-way ANOVA with Bonferroni post-test: * p<0.05, ** p<0.01, *** p<0.001 vs. control cells;
FIG. 2 illustrates the combined inhibition of PDK1 and Aurora A on U87MG cell proliferation of example 3a. U87MG cells were treated in complete medium with different concentrations of MP7, in the presence or absence of Alisertib, for 72 h. At the end of treatment, cell proliferation was measured using the MTS assay. The data are expressed as a percentage with respect to that of untreated cells (control), which was set to 100%, and are the mean values±SEM of three independent experiments, each performed in duplicate. The significance of the differences was determined with a one-way ANOVA with Bonferroni post-test: * p<0.05, *** p<0.001 vs. control cells; ## p<0.01, ### p<0.001 vs. cells treated with MP7 alone; §§ p<0.01, § § § p<0.001 vs. cells treated with Alisertib alone;
To examine the effects of SA16 on U87MG cell growth/survival, U87MG cells were incubated with different concentrations of the compound SA16 (1 nM-10 μM) for 72 h.
In parallel experiments, U87MG proliferation was assessed in the presence of a well-known PDK1 inhibitor MP7, alone or in combination with the Aurora A inhibitor, Alisertib.

[5] = tested on: cancer stem cell (CSC) neurospheres obtained from U87MG cells; assay: CSC (GBM stem cell) proliferation, MTS assay; format: cell-based
Description: FIG. 3 illustrates the effects of SA16 on CSC proliferation of example 3b. CSCs were treated in complete neurosphere medium with different concentrations of SA16 (1 nM-100 μM) for seven days. At the end of treatment, cell proliferation was measured using the MTS assay. The data are expressed as a percentage with respect to that of untreated cells (control), which was set to 100%, and are the mean values±SEM of three independent experiments, each performed in duplicate. IC50 value after seven days of treatment were calculated from sigmoid dose-response curve;
FIG. 4 illustrates combined inhibition of PDK1 and Aurora A on CSCs proliferation of example 3b. CSCs were treated in complete medium with different concentrations of MP7, in the presence or absence of Alisertib, for seven days. At the end of treatment, cell proliferation was measured using the MTS assay.
The data are expressed as a percentage with respect to that of untreated cells (control), which was set to 100%, and are the mean values±SEM of three independent experiments, each performed in duplicate. The significance of the differences was determined with a one-way ANOVA with Bonferroni post-test: * p<0.05, *** p<0.001 vs. control cells; ## p<0.01, ### p<0.001 vs. cells treated with MP7 alone; §§ p<0.01, § § § p<0.001 vs. cells treated with Alisertib alone;
The inventors also examined the effects of SA16 compound on cancer stem cell (CSC) neurospheres obtained from U87MG cells.

Compound: O=C(CNC(=O)c1cc2cccnc2n(Cc2ccc(F)c(F)c2)c1=O)Nc1ccc2c(c1)/C(=C/c1cnc[nH]1)C(=O)N2 [SST201, (Z)—N-(2-((3-((1H-imidazol-5-yl)methylene)-2-oxoindolin-5-yl)amino)-2-oxoethyl)-1-(3,4-difluorobenzyl)-2-oxo-1,2-dihydro-1,8-naphthyridine-3-carboxamide]
- inhibition at 10 µM [1]: 43%
- inhibition at 10 µM ([2]; 10μM compound, Z'-LYTE assay): 35%

Compound: O=C(CNC(=O)c1cccn(Cc2ccc(F)c(F)c2)c1=O)Nc1ccc2c(c1)/C(=C/c1cnc[nH]1)C(=O)N2 [IB35, (Z)—N-(2-((3-((1H-imidazol-5-yl)methylene)-2-oxoindolin-5-yl)amino)-2-oxoethyl)-1-(3,4-difluorobenzyl)-2-oxo-1,2-dihydro pyridine-3-carboxamide]
- IC50 [1]: 289 nM

Compound: O=C(CCNC(=O)c1cccn(Cc2ccc(F)c(F)c2)c1=O)Nc1ccc2c(c1)/C(=C/c1cnc[nH]1)C(=O)N2 [DD21, (Z)—N-(3-((3-((1H-imidazol-5-yl)methylene)-2-oxoindolin-5-yl)amino)-3-oxopropyl)-1-(3,4-difluorobenzyl)-2-oxo-1,2-dihydropyridine-3-carboxamide]
- IC50 [1]: 2470 nM
- IC50 ([2]; Z'-LYTE assay): 103 nM

Compound: O=C(N[C@@H](COc1ccc2[nH]c(=O)[nH]c2c1)c1ccccc1)c1cccn(Cc2ccc(F)c(F)c2)c1=O [MP7, 1-(3,4-difluorobenzyl)-2-oxo-N-{(1R)-2-[(2-oxo-2,3-dihydro-1H-benzimidazol-5-yl)oxy]-1-phenylethyl}-1,2-dihydropyridine-3-carboxamide]
- area occupied by the neurospheres [3]: reduction in the area occupied by the neurospheres
- effect on U87MG cell proliferation (in words) [4]: did not show a significant inhibition of cell proliferation
- effect on CSC proliferation (in words) ([5]; seven days): slight effects on U87MG proliferation

Compound: O=C(CCCNC(=O)c1cccn(Cc2ccc(F)c(F)c2)c1=O)Nc1ccc2c(c1)/C(=C/c1cnc[nH]1)C(=O)N2 [DF8, (Z)—N-(4-((3-((1H-imidazol-5-yl)methylene)-2-oxoindolin-5-yl)amino)-4-oxobutyl)-1-(3,4-difluorobenzyl)-2-oxo-1,2-dihydropyridine-3-carboxamide]
- inhibition of AurA kinase (in words) [1]: best effects
- IC50 [1]: 611 nM
- inhibition of PDK1 kinase (in words) [2]: best effects
- IC50 ([2]; Z'-LYTE assay): 245 nM

Compound: Cc1ccc(C(=O)NCC(=O)Nc2ccc3c(c2)/C(=C/c2cnc[nH]2)C(=O)N3)c(=O)n1Cc1ccc(F)c(F)c1 [SST200, (Z)—N-(2-((3-((1H-imidazol-5-yl)methylene)-2-oxoindolin-5-yl)amino)-2-oxoethyl)-1-(3,4-difluorobenzyl)-6-methyl-2-oxo-1,2-dihydropyridine-3-carboxamide]
- IC50 [1]: 193 nM
- IC50 ([2]; Z'-LYTE assay): 103 nM

More lines, main results first:

- IC50 [1]: 69.8 nM
- IC50 ([2]; Z'-LYTE assay): 148 nM
Compound: Cc1ccc(C(=O)N[C@@H](C(=O)Nc2ccc3c(c2)/C(=C/c2cnc[nH]2)C(=O)N3)c2ccccc2)c(=O)n1Cc1ccc(F)c(F)c1 [Compound V18, (R,Z)—N-(2-((3-((1H-imidazol-5-yl)methylene)-2-oxoindolin-5-yl)amino)-2-oxo-1-phenylethyl)-1-(3,4-difluorobenzyl)-6-methyl-2-oxo-1,2-dihydropyridine-3-carboxamide]

- inhibition at 10 µM [1]: 52%
- IC50 ([2]; Z'-LYTE assay): 134 nM
Compound: Cc1c(Br)cc(C(=O)NCC(=O)Nc2ccc3c(c2)/C(=C/c2cnc[nH]2)C(=O)N3)c(=O)n1Cc1ccc(F)c(F)c1 [Compound V123, (Z)—N-(2-((3-((1H-imidazol-5-yl)methylene)-2-oxoindolin-5-yl)amino)-2-oxoethyl)-5-bromo-1-(3,4-difluorobenzyl)-6-methyl-2-oxo-1,2-dihydropyridine-3-carboxamide]

- IC50 [1]: 35 nM
- IC50 ([5]; Homo sapiens, U-87 MG, 168 h, seven days of treatment, read-out: IC50 of inhibition of GSC proliferation): 8.33 ± 0.78 nM
Compound: O=C1Nc2ccc(NC(=O)[C@H](NC(=O)c3cccn(Cc4ccc(F)c(F)c4)c3=O)c3ccccc3)cc2/C1=C/c1cnc[nH]1 [SA16, (Z)—(R)—N-(2-((3-((1H-imidazol-5-yl)methylene)-2-oxoindolin-5-yl)amino)-2-oxo-1-phenylethyl)-1-(3,4-difluorobenzyl)-2-oxo-1,2-dihydropyridine-3-carboxamide]
- maximal percentage of inhibition of U87MG cell proliferation ([4]; 1 nM-10 μM): 49.4±2%
- maximal percentage of inhibition of GSC proliferation ([5]; seven days of treatment): 80.0±2.0%

- IC50 [1]: 118 nM
- IC50 ([2]; Z'-LYTE assay): 475 nM
Compound: Cc1c(Br)cc(C(=O)N[C@@H](C(=O)Nc2ccc3c(c2)/C(=C/c2cnc[nH]2)C(=O)N3)c2ccccc2)c(=O)n1Cc1ccc(F)c(F)c1 [Compound V118, (R,Z)—N-(2-((3-((1H-imidazol-5-yl)methylene)-2-oxoindolin-5-yl)amino)-2-oxo-1-phenylethyl)-5-bromo-1-(3,4-difluorobenzyl)-6-methyl-2-oxo-1,2-dihydropyridine-3-carboxamide]
